# Measurements: PubChem BioAssay (NCI)
#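 48-hour exposure; five concentrations; linearly interpolated endpoints. GI50 = concentration required for 50% inhibition of growth. TGI denotes the concentration required for complete inhibition of growth.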
# Experiments:
# Test in all cases: inhibition of tumour cell growth, NCI panel, 48 h
# 786-0 renal = test system: 786-0 renal
# LOX IMVI melanoma = test system: LOX IMVI melanoma
# RXF 393 renal = test system: RXF 393 renal
# A498 renal = test system: A498 renal
# NCI-H23 lung = test system: NCI-H23 lung
# OVCAR-8 ovarian = test system: OVCAR-8 ovarian
# HL-60(TB) leukemia = test system: HL-60(TB) leukemia
# HCT-15 colon = test system: HCT-15 colon
# EKVX NSCLC = test system: EKVX NSCLC
# IGROV1 ovarian = test system: IGROV1 ovarian
# DMS 114 small cell lung = test system: DMS 114 small cell lung
# K-562 leukemia = test system: K-562 leukemia
# SNB-78 CNS = test system: SNB-78 CNS
# UACC-257 melanoma = test system: UACC-257 melanoma
# M14 melanoma = test system: M14 melanoma
# SF-295 CNS = test system: SF-295 CNS
# HCC-2998 colon = test system: HCC-2998 colon
# KM12 colon = test system: KM12 colon
# SK-MEL-28 melanoma = test system: SK-MEL-28 melanoma
# CAKI-1 renal = test system: CAKI-1 renal
# ACHN renal = test system: ACHN renal
# SK-OV-3 ovarian = test system: SK-OV-3 ovarian
# DLD-1 colon = test system: DLD-1 colon
# SNB-19 CNS = test system: SNB-19 CNS
# RXF-631 renal = test system: RXF-631 renal
# M19-MEL melanoma = test system: M19-MEL melanoma
# LXFL 529 NSCLC = test system: LXFL 529 NSCLC
# NCI-H460 lung = test system: NCI-H460 lung
# HOP-92 NSCLC = test system: HOP-92 NSCLC
# SR leukemia = test system: SR leukemia
# RPMI-8226 leukemia = test system: RPMI-8226 leukemia
# TK-10 renal = test system: TK-10 renal
# XF 498 CNS = test system: XF 498 CNS
# NCI-H226 lung = test system: NCI-H226 lung
# OVCAR-5 ovarian = test system: OVCAR-5 ovarian
# COLO 205 colon = test system: COLO 205 colon
# SF-539 CNS = test system: SF-539 CNS
# HOP-62 NSCLC = test system: HOP-62 NSCLC
# SNB-75 CNS = test system: SNB-75 CNS
# OVCAR-3 ovarian = test system: OVCAR-3 ovarian
# U251 CNS = test system: U251 CNS
# HT29 colon = test system: HT29 colon
# OVCAR-4 ovarian = test system: OVCAR-4 ovarian
# SK-MEL-5 melanoma = test system: SK-MEL-5 melanoma
# MALME-3M melanoma = test system: MALME-3M melanoma
# SW-620 colon = test system: SW-620 colon
# CCRF-CEM leukemia = test system: CCRF-CEM leukemia
# SN12C renal = test system: SN12C renal
# SK-MEL-2 melanoma = test system: SK-MEL-2 melanoma
# A549 NSCLC = test system: A549 NSCLC
# HCT-116 colon = test system: HCT-116 colon
# UACC-62 melanoma = test system: UACC-62 melanoma
# NCI-H522 lung = test system: NCI-H522 lung
# UO-31 renal = test system: UO-31 renal
# DMS 273 small cell lung = test system: DMS 273 small cell lung
# MOLT-4 leukemia = test system: MOLT-4 leukemia
# KM20L2 colon = test system: KM20L2 colon
compound,measurement,setting,value
CCC[CH2][Sn]1([CH2]CCC)[O]CC(c2ccccn2)C[O]1,GI50,786-0 renal,15.6 µM
same,TGI,786-0 renal,29.3 µM
same,GI50,LOX IMVI melanoma,13.7 µM
same,TGI,LOX IMVI melanoma,27.7 µM
same,GI50,RXF 393 renal,19.5 µM
same,TGI,RXF 393 renal,36.7 µM
same,GI50,A498 renal,26.7 µM
same,TGI,A498 renal,50.7 µM
same,GI50,NCI-H23 lung,17.1 µM
same,TGI,NCI-H23 lung,35.3 µM
same,GI50,OVCAR-8 ovarian,17.9 µM
same,TGI,OVCAR-8 ovarian,36.8 µM
same,GI50,HL-60(TB) leukemia,7.65 µM
same,TGI,HL-60(TB) leukemia,29.4 µM
same,GI50,HCT-15 colon,18.2 µM
same,TGI,HCT-15 colon,32.6 µM
same,GI50,EKVX NSCLC,15.5 µM
same,TGI,EKVX NSCLC,36.2 µM
same,GI50,IGROV1 ovarian,20.2 µM
same,TGI,IGROV1 ovarian,36.6 µM
same,GI50,DMS 114 small cell lung,10.2 µM
same,TGI,DMS 114 small cell lung,26.7 µM
same,GI50,K-562 leukemia,14.6 µM
same,TGI,K-562 leukemia,65.8 µM
same,GI50,SNB-78 CNS,19.9 µM
same,TGI,SNB-78 CNS,61.3 µM
same,GI50,UACC-257 melanoma,17.3 µM
same,TGI,UACC-257 melanoma,32.4 µM
same,GI50,M14 melanoma,16.2 µM
same,TGI,M14 melanoma,30.7 µM
same,GI50,SF-295 CNS,20.3 µM
same,TGI,SF-295 CNS,38.1 µM
same,GI50,HCC-2998 colon,19.4 µM
same,TGI,HCC-2998 colon,34.3 µM
same,GI50,KM12 colon,23.2 µM
same,TGI,KM12 colon,59.4 µM
same,GI50,SK-MEL-28 melanoma,15.4 µM
same,TGI,SK-MEL-28 melanoma,29.4 µM
same,GI50,CAKI-1 renal,7.39 µM
same,TGI,CAKI-1 renal,22.1 µM
same,GI50,ACHN renal,19.8 µM
same,TGI,ACHN renal,34 µM
same,GI50,SK-OV-3 ovarian,24.4 µM
same,TGI,SK-OV-3 ovarian,84.8 µM
same,GI50,DLD-1 colon,15.3 µM
same,TGI,DLD-1 colon,29.8 µM
same,GI50,SNB-19 CNS,22.1 µM
same,TGI,SNB-19 CNS,45 µM
same,GI50,RXF-631 renal,15.4 µM
same,TGI,RXF-631 renal,29.5 µM
same,GI50,M19-MEL melanoma,14.8 µM
same,TGI,M19-MEL melanoma,29.2 µM
same,GI50,LXFL 529 NSCLC,7.96 µM
same,TGI,LXFL 529 NSCLC,20.5 µM
same,GI50,NCI-H460 lung,33.5 µM
same,TGI,NCI-H460 lung,> 100 µM
same,GI50,HOP-92 NSCLC,18.2 µM
same,TGI,HOP-92 NSCLC,36.6 µM
same,GI50,SR leukemia,12.4 µM
same,TGI,SR leukemia,41.7 µM
same,GI50,RPMI-8226 leukemia,7.2 µM
same,TGI,RPMI-8226 leukemia,34.5 µM
same,GI50,TK-10 renal,18.9 µM
same,TGI,TK-10 renal,33.3 µM
same,GI50,XF 498 CNS,17.9 µM
same,TGI,XF 498 CNS,32.7 µM
same,GI50,NCI-H226 lung,31 µM
same,TGI,NCI-H226 lung,> 100 µM
same,GI50,OVCAR-5 ovarian,21.3 µM
same,TGI,OVCAR-5 ovarian,42.6 µM
same,GI50,COLO 205 colon,17.5 µM
same,TGI,COLO 205 colon,31.7 µM
same,GI50,SF-539 CNS,18.6 µM
same,TGI,SF-539 CNS,33.1 µM
same,GI50,HOP-62 NSCLC,23.3 µM
same,TGI,HOP-62 NSCLC,68.6 µM
same,GI50,SNB-75 CNS,22.5 µM
same,TGI,SNB-75 CNS,58 µM
same,GI50,OVCAR-3 ovarian,16.7 µM
same,TGI,OVCAR-3 ovarian,30.5 µM
same,GI50,U251 CNS,15.9 µM
same,TGI,U251 CNS,29.6 µM
same,GI50,HT29 colon,20.5 µM
same,TGI,HT29 colon,38.3 µM
same,GI50,OVCAR-4 ovarian,20.7 µM
same,TGI,OVCAR-4 ovarian,37.9 µM
same,GI50,SK-MEL-5 melanoma,17 µM
same,TGI,SK-MEL-5 melanoma,34.4 µM
same,GI50,MALME-3M melanoma,7.93 µM
same,TGI,MALME-3M melanoma,19.8 µM
same,GI50,SW-620 colon,15.3 µM
same,TGI,SW-620 colon,29.5 µM
same,GI50,CCRF-CEM leukemia,4.13 µM
same,TGI,CCRF-CEM leukemia,34.8 µM
same,GI50,SN12C renal,19.8 µM
same,TGI,SN12C renal,35.3 µM
same,GI50,SK-MEL-2 melanoma,14 µM
same,TGI,SK-MEL-2 melanoma,28.5 µM
same,GI50,A549 NSCLC,32.1 µM
same,TGI,A549 NSCLC,> 100 µM
same,GI50,HCT-116 colon,19.3 µM
same,TGI,HCT-116 colon,33.7 µM
same,GI50,UACC-62 melanoma,14.1 µM
same,TGI,UACC-62 melanoma,28 µM
same,GI50,NCI-H522 lung,3.14 µM
same,TGI,NCI-H522 lung,11.8 µM
same,GI50,UO-31 renal,19.4 µM
same,TGI,UO-31 renal,35.5 µM
same,GI50,DMS 273 small cell lung,15.7 µM
same,TGI,DMS 273 small cell lung,29.6 µM
same,GI50,MOLT-4 leukemia,17.2 µM
same,TGI,MOLT-4 leukemia,56 µM
same,GI50,KM20L2 colon,29.6 µM
same,TGI,KM20L2 colon,73.3 µM
